Series [1] concerns PI3kinase. As to the kind of experiment: In vivo PI3kinase activity assay (pAkt/Akt in peripheral blood mononuclear cells after i.v. dosing). The arrangement: species or system mice. How it is done: (§1) Pharmacokinetic analysis of a 5 mg/kg bolus dose TG100-115 in Balb-c mice was accomplish by evaluating TG100-115 levels in serum at 5, 15, 30, 60 minute intervals as was previously performed for rats^25. In vivo activity assay of a 5 mg/kg bolus dose TG100-115 in Balb-c mice was accomplish by evaluating pAkt/Akt levels in peripheral blood cells in response to SDF-1α stimulation at 0.25, 0.5, 1, 2, 4, 6 and 12 hour intervals
CD11b+ cells from C57BL/6 mice or PI3-kinase γ−/− mice were freshly isolated under serum free-conditions and were incubated for 30 min in serum-free media in the presence or absence of 1 μM TG100-115. CD11b+ cells were then stimulated with 200 ng/ml IL-1β or SDF-1α (R&D Systems) for 1-3 minutes and cells were solubilized with RIPA buffer. Alternatively, mice were injected intravenously with […] TG100-115 or a chemically similar inert control. Mononuclear peripheral blood leukocytes were isolated from 2 mice each at 0.5, 1, 2, 4, 6 and 12 hours after treatment. Cells were treated for 3 minutes with 200 ng/ml SDF and then solubilized with RIPA buffer. Lysates were electrophoresed and Western blotted. Akt phosphorylation was evaluated by immunoblotting with anti-phosphorylated Thr308-Akt specific antibody (C31 E5E, Cell Signalling). Blots were stripped and reprobed with anti-Akt (#9272, Cell Signaling). Films were scanned and quantified by densitometry.

The test system of series [2] is CD11b+ myeloid cell adhesion to VCAM-1. The series is described as follows: Chemoattractant-stimulated CD11b+ myeloid cell adhesion to VCAM-1 / endothelial cells (Example 9 adhesion assay). In kind it is cell-based, mouse. The note with it: Mus musculus, Endothelial cell, read-out: IC50, CD11b+ cell adhesion to VCAM-1. On the procedure:
1×10^5 calcein-AM labelled human CD11b+ cells isolated from buffy coats from the San Diego Blood Bank or murine CD11b+ cells isolated from naïve (non-tumour bearing) or tumour-bearing mice were incubated on HUVEC monolayers or on plastic plates coated with 5 μg/ml recombinant soluble VCAM-1 or ICAM-1 (R&D Systems) for 30 minutes at 37° C. with humidity in the presence of LLC Tumour Conditioned Medium (TCM) or DMEM containing 200 ng/ml SDF1α, IL1β, IL6, TNFα or VEGF-A (R&D Systems). (SDF-1α and IL-1β were initially titrated to determine the minimum dose required to achieve near maximal stimulation of adhesion). TCM was prepared by incubating LLC cells in serum-free media for 18 h and filtering through 0.22 μm filters. After washing three times with warmed medium, adherent cells were quantified using a plate fluorimeter (GeniosPro, TECAN).
In some adhesion assays, cells were also incubated in 25 μg/ml function-blocking anti-integrin α4β1 (rat anti-murine, PS2 or mouse anti-human, HP2/1, gifts from Biogen-Idec), rat-anti-αM (anti-CD11b, M1/70) and isotype control antibodies (rat IgG2κ or mouse IgG1) or with 0.1 nM-10 μM doses of the small molecule inhibitor of integrin α4, ELN476063 (IC50=10 nM), a gift from Elan^14.
Additionally, labelled cells were incubated with HUVEC and rsVCAM coated plates in the presence of […] or SDF-1α and 1-10 μM inhibitors: pan-PI3 kinase inhibitors ([…], wortmannin), PI3-kinase α inhibitors (PI3K75, PIK2alpha, PI103), PI3-kinase β inhibitor (TGX221), PI3-kinase γ inhibitors (TG100-115, AS605240, AS604850), inert control, PLC inhibitor (U73122), geranylgeranyltransferase (Rap1-selective) inhibitors (GGTI-2147 and GGTI-298) or farnesyltransferase (Ras-selective) inhibitor (FTI-277), Akt inhibitors (Inhibitor X and peptide 18), mTOR inhibitor (rapamycin), ROCK inhibitor (Y27632), MEK inhibitor (PD98059), p38 inhibitor (SB202190), tyrosine kinase inhibitor (genestein) and PKA inhibitors (H89, KT5720). LY294002, wortmannin, genestein, U73122, GGTI-2147, GGTI-298, FTI-277, Y27632, PD98059, SB202190, H89 and KT5720 were from Calbiochem. PIK2alpha, PI103, AS605240, AS604850 and TGX221 were from Echelon. TG100-115 was prepared as described^25-26. To titrate the effect of various signalling protein inhibitors on myeloid cell adhesion stimulated by IL-1β or SDF-1α, cells were incubated in 1 nm to 100 μM PI3-kinase inhibitors TG00020 (a pan-PI3-kinase inhibitor), PI3-kinase α inhibitor (PI3Kalpha2) PI3-kinase β inhibitor (TGX221), PI3-kinase γ inhibitors (TG100-115, AS605240), an inert chemically matched control, farnesyltrasnferase inhibitors and geranylgeranyltransferase inhibitors. IC50s for GGTI and FTI were 1 μM. […] Adherent GFP+ cells were automatically quantified using MetaMorph software (Molecular Devices Software).

The subject of series [3] is PyMT breast tumours. As to the kind of experiment: Spontaneous PyMT breast tumour progression in treated mice. In kind it is in vivo, FVB PyMT+ female mice. On the procedure: Alternatively, 6 week old PyMT+ female mice (with spontaneous breast tumours), were treated by subcutaneous injection with ELN476063 (3 mg/kg body weight), or saline every third day for three weeks (n=10). Tumours were excised, weighed and analyzed from 6 weeks at 9 weeks of age.
PI3-kinase γ inhibitor studies: C57BL/6 mice were subcutaneously implanted on d1 with 5×10^5 LLC or by intradermal injection with 5×10^5 B16 melanoma cells. Mice were treated by i.p. injection with 2.5 mg/kg of PI3-kinase γ inhibitor (TG100-115) or with a chemically similar inert control (n=10) twice daily for fourteen days for a total daily dose of 5 mg/kg. In additional studies, C57BL/6 mice were subcutaneously implanted on d1 with 5×10^5 LLC and were treated by i.p. injection with 2.5 mg/kg, 0.25 mg/kg, or 0.025 mg/kg of PI3-kinase γ inhibitor (TG100-115), with 2.5 mg/kg of AS605240 or with a chemically similar inert control (n=10) twice daily for twenty-one days for a total daily dose of 5 mg/kg. Tumour volumes, weights and blood vessel densities, as well as myeloid cell densities were measured. Alternatively, 6 week old PyMT+ female mice (with spontaneous breast tumours), were treated by i.p. injection with 2.5 mg/kg PI3-kinase γ inhibitor (TG100-115) or inert control twice daily for three weeks (n=10). Tumours were excised, weighed and analyzed after 3 weeks. Alternatively, 6 week old FVB PyMT+ female mice were implanted with an Alzet osmotic pump with a 0.25 μl/h release rate containing 4.6 mg in 200 μl of TG100-115 or chemically similar, inert control (n=10). Mice were sacrificed at 9 weeks of age and tumours were analyzed.
Inguinal mammary glands were fixed in Carnoy's fixative, dehydrated through a graded series of ethanol solutions and defatted in xylene. Following rehydration, the mammary epithelium was stained with carmine stain (Sigma Chemical, St Louis, Mo.) for 30 min. After removing excess stain by washing in water, samples were dehydrated and stored in methyl salicylate (Sigma Chemical, St Louis, Mo.).^31

Series [4] is described as follows: Pharmacokinetic analysis of TG100-115 in serum. The following applies: mouse. In kind it is in vivo, Balb/c mice. On the procedure: as §1
Series [5] deals with CD11b+ cells adhesion to endothelium. As to the kind of experiment: Adhesion of CD11b+ cells to endothelium (Example 1 adhesion assay). Format: cell-based, murine. The following applies: SDF-1α, TCM or IL-1β (and other chemoattractant) induced. On the procedure:
TCM was prepared from serum-free media cultured on LLC cells for 18 h and filtered through 0.22 μm filters. 10^5 calcein-AM labelled human or murine CD11b+ cells in TCM or DMEM containing 200 ng/ml SDF-1α, IL-1β, IL-6, IL-8 or VEGF-A (R&D Systems) were incubated on HUVEC monolayers or on plastic plates coated with 5 μg/ml recombinant soluble VCAM-1 (R&D Systems). Adherent cells were quantified using a fluorescence activated plate reader (GeniosPro, TECAN). In some assays, cells were also incubated in 25 μg/ml anti-integrin α4β1 (PS2 for murine cells and HP2/1 for human cells, gifts from Biogen-Idec) and isotype control antibodies (IgG2bk for murine cells and IgG1 for human cells). In some studies, cells were incubated in 10 μM pan PI3K inhibitors […] or TG020, in PI3kinase α inhibitor PI3K75, PI3kinase γ/δ inhibitor TG115 and an inert control.

This note sets out measurements from US20100278837A1, “Compositions And Methods For Reducing Cancer And Inflammation” (The Regents of the University of California, priority 2009, published 2010).

Each structure is given as a SMILES string. Read-outs that look alike come from different tables or passages of the source.

With `Nc1nc(N)c2nc(-c3cccc(O)c3)c(-c3cccc(O)c3)nc2n1` [TG100-115, 3,3′-(2,4-diaminopteridine-6,7-diyl)diphenol], the “time after dosing for which PI3kinase activity is inhibited” value in series [1] (5 mg/kg i.v., PBMC stimulated 3 min with SDF-1α) is “up to 12 hours”. The “myeloid cell PI3kinase catalytic activity in vivo” value in series [1] (mouse, in vivo) was “rapidly and sustainably inhibits myeloid cell PI3kinase catalytic activity in vivo”. Further, in series [2] (IL-1β stimulated), the IC50 stood at 281 nM. Further, the IC50 in series [2] (SDF-1α stimulated) was found to be 158 nM. Also, in series [3], the “carcinoma area in mammary gland whole mounts” value is given as 6+/−1.3%, the “hyperplasia area in mammary gland whole mounts” value was 27+/−5% and the “normal tissue area in mammary gland whole mounts” value is 67+/−3%. Also, in series [4] (Balb/c, intravenous, 5 mg/kg, read-out: t1/2 in vivo (converted)), the half-life was 13.2 min. In series [4] (iv, single i.v. dose of 5 mg/kg, Balb/c mice), this molecule gave a concentration at 1 h of 7.1 ng/mL. For the same molecule, in series [4] (iv, single i.v. dose of 5 mg/kg, Balb/c mice, read-out: half-life in mice in vivo (converted)), the half-life was 13.2 min.
As to `c1cc(CN2CCCNCCNCCCNCC2)ccc1CN1CCCNCCNCCCNCC1` [AMD3100], the “CD11b+ cell adhesion to endothelium” value in series [5] was “inhibited SDF-1α, and TCM-induced but not IL-1β induced adhesion”.

The term IC50 denotes the concentration that inhibits the measured activity by half.
